According to patent publication US4963542A, “Cephalosporin derivatives” (Takeda Chemical Industries, Ltd., priority 1976, dated 1990):

How the values were obtained:
[1] = test system: Escherichia coli 0-111; assay: Therapeutic effects on infected mice; format: in vivo, Male mouse, ICR/SLC; conditions: Escherichia coli, 0111, sc, 168 h, s.c. single dose immediately after intraperitoneal infection, 7 days observation
Procedure: The therapeutic efficacies of several representative compounds [I] of this invention and of cephaloridine on infected mice are also set forth in the tables.
(b) Therapeutic effects on infected mice (Table 3 and Table 4)
Test animal: Male mouse, ICR/SLC
A group of five animals was employed per drug.
Route of infection: Intraperitoneal
Infectious bacteria: Escherichia coli 0-111
Period of observation: 7 days
Method of administration: Test compound (1 mg, 10 mg, 100 mg or 200 mg) was dissolved in sterile saline solution (100 ml) and 0.2 ml of the solution was administered subcutaneously as a single dose immediately after infection. Two fold dilutions of each solution were administered to five groups of 5 mice each.

[2] = test system: Citrobacter freundii GN99; assay: Minimal inhibitory concentration, agar serial dilution; format: cell-based; conditions: TSA, inoculum 10^7 /ml
Excerpt: (§1) (a) Minimal inhibitory concentrations (Table 1 and 2)
(§2) Method: Agar serial dilution

[3] = test system: Escherichia coli 0-111; assay: as above; format: cell-based; conditions: TSA, inoculum 10^7 /ml
Excerpt: as §1, §2

[4] = test system: Proteus vulgaris GN4413; assay: as above; format: cell-based; conditions: TSA, inoculum 10^7 /ml
Excerpt: as §1, §2

[5] = test system: Enterobacter cloacae TN1282; assay: as above; format: cell-based; conditions: TSA, inoculum 10^7 /ml
Excerpt: as §1, §2

[6] = test system: Klebsiella pneumoniae GN-3835; assay: as above; format: cell-based; conditions: TSA, inoculum 10^7 /ml
Excerpt: as §1, §2

[7] = test system: Klebsiella pneumoniae DT; assay: as above; format: cell-based; conditions: TSA, inoculum 10^7 /ml
Excerpt: as §1, §2

[8] = test system: Serratia marcescens IFO 12648; assay: as above; format: cell-based; conditions: TSA, inoculum 10^7 /ml
Excerpt: as §1, §2

[9] = test system: Citrobacter freundii GN1706; assay: as above; format: cell-based; conditions: TSA, inoculum 10^7 /ml
Excerpt: as §1, §2

[10] = test system: Proteus morganii IFO3168; assay: as above; format: cell-based; conditions: TSA, inoculum 10^7 /ml
Excerpt: as §1, §2

[11] = test system: Proteus vulgaris IFO 3988; assay: as above; format: cell-based; conditions: TSA, inoculum 10^7 /ml
Excerpt: as §1, §2

[12] = test system: Proteus rettgeri TN338; assay: as above; format: cell-based; conditions: TSA, inoculum 10^7 /ml
Excerpt: as §1, §2

[13] = test system: Escherichia coli T-7; assay: as above; format: cell-based; conditions: TSA, inoculum 10^7 /ml
Excerpt: as §1, §2

[14] = test system: Serratia marcescens TN24; assay: as above; format: cell-based; conditions: TSA, inoculum 10^7 /ml
Excerpt: as §1, §2

[15] = test system: Staphylococcus aureus 209P; assay: as above; format: cell-based; conditions: TSA, inoculum 10^7 /ml
Excerpt: as §1, §2

[16] = test system: Proteus mirabilis GN4359; assay: as above; format: cell-based; conditions: TSA, inoculum 10^7 /ml
Excerpt: as §1, §2

[17] = test system: Staphylococcus aureus 1840; assay: as above; format: cell-based; conditions: TSA, inoculum 10^7 /ml
Excerpt: as §1, §2

[18] = test system: Proteus rettgeri GN4733; assay: as above; format: cell-based; conditions: TSA, inoculum 10^7 /ml
Excerpt: as §1, §2

[19] = test system: Escherichia coli NIHJ JC-2; assay: as above; format: cell-based; conditions: TSA, inoculum 10^7 /ml
Excerpt: as §1, §2

| Compound | ED50 ([1]; Table 3) | ED50 ([1]; Table 4) | Minimal inhibitory concentration (MIC) [2] | Minimal inhibitory concentration (MIC) [3] | Minimal inhibitory concentration (MIC) [4] | Minimal inhibitory concentration (MIC) [5] | Minimal inhibitory concentration (MIC) [6] | Minimal inhibitory concentration (MIC) [7] | Minimal inhibitory concentration (MIC) [8] | Minimal inhibitory concentration (MIC) [9] | Minimal inhibitory concentration (MIC) [10] | Minimal inhibitory concentration (MIC) [11] | Minimal inhibitory concentration (MIC) [12] | Minimal inhibitory concentration (MIC) [13] | Minimal inhibitory concentration (MIC) [14] | Minimal inhibitory concentration (MIC) [15] | Minimal inhibitory concentration (MIC) [16] | Minimal inhibitory concentration (MIC) [17] | Minimal inhibitory concentration (MIC) [18] | Minimal inhibitory concentration (MIC) [19] |
| --- | --- | --- | --- | --- | --- | --- | --- | --- | --- | --- | --- | --- | --- | --- | --- | --- | --- | --- | --- | --- |
| O=C(Cc1cccs1)N[C@@H]1C(=O)N2C(C(=O)[O-])=C(C[n+]3ccccc3)CS[C@H]12 [Cephaloridine, 7-(2-thienylacetamido)-3-(1-pyridyl)methyl-3-cephem-4-carboxylic acid betaine, reference compound] | 2.6 mg/kg | 1.81 mg/kg | 50 | 1.56 | > 100 | > 100 | 12.5 | 1.56 | > 100 | > 100 | > 100 | 6.25 | 1.56 | > 100 | > 100 | 0.05 | 6.25 | 0.39 | > 100 | 3.13 |
| CC(=O)OCC1=C(C(=O)O)N2C(=O)C(NC(=O)/C(=N\O)c3csc(=N)[nH]3)C2SC1 (stereo not drawn) [Example 5, sodium 7-[2-(2-imino-4-thiazolin-4-yl)-2-hydroxyimino-acetamido]-3-acetoxymethyl-3-cephem-4-carboxylate (syn-isomer)] | 0.033 mg/kg |  | 0.05 | ≤ 0.012 | 12.5 | 6.25 | 0.05 | ≤ 0.012 | 6.25 | 0.10 | 0.20 | 0.05 | ≤ 0.012 | 0.39 | 1.56 | 0.39 | 0.05 | 0.39 | 0.024 | 0.024 |
| Cn1nnnc1SCC1=C(C(=O)O)N2C(=O)C(NC(=O)/C(=N\O)c3csc(=N)[nH]3)C2SC1 (stereo not drawn) [Example 12, sodium 7-[2-(2-imino-4-thiazolin-4-yl)-2-hydroxyimino-acetamido]-3-(1-methyl-1H-tetrazol-5-yl)thiomethyl-3-cephem-4-carboxylate (syn-isomer)] | 0.028 mg/kg |  | 0.05 | ≤ 0.012 | 6.25 | 1.56 | 0.10 | 0.024 | 0.78 | 0.10 | 0.024 | 0.05 | ≤ 0.012 | 0.78 | 0.39 | 0.39 | 0.10 | 0.78 | 0.05 | 0.05 |
| Cn1cnnc1SCC1=C(C(=O)O)N2C(=O)C(NC(=O)/C(=N\O)c3csc(=N)[nH]3)C2SC1 (stereo not drawn) [Example 15, sodium 7-[2-(2-imino-4-thiazolin-4-yl)-2-hydroxyimino-acetamido]-3-(4-methyl-1,2,4-triazol-3-yl)thiomethyl-3-cephem-4-carboxylate (syn-isomer)] |  | 0.016 mg/kg | 0.05 | ≤ 0.012 | 3.13 | 1.56 | 0.05 | 0.024 | 0.78 | 0.05 | 0.024 | 0.05 | ≤ 0.012 | 0.39 | 0.78 | 0.78 | 0.10 | 0.78 | 0.10 | 0.024 |
| Cc1nnc(SCC2=C(C(=O)O)N3C(=O)C(NC(=O)/C(=N\O)c4csc(=N)[nH]4)C3SC2)s1 (stereo not drawn) [Example 16, sodium 7-[2-(2-imino-4-thiazolin-4-yl)-2-hydroxyimino-acetamido]-3-(2-methyl-1,3,4-thiadiazol-5-yl)thiomethyl-3-cephem-4-carboxylate (syn-isomer)] |  | 0.035 mg/kg | 0.10 | 0.024 | 6.25 | 6.25 | 0.20 | 0.05 | 3.13 | 0.20 | 0.05 | 0.10 | ≤ 0.012 | 1.56 | 0.78 | 0.39 | 0.20 | 0.78 | 0.10 | 0.10 |
